The record followed here is US11203577B2, “Sulfonyl-structure-containing triazinone derivatives, their preparation methods and their uses in insect killing and/or bacterium killing” (Nankai University, priority 2017, dated 2021).

Data set [1] has as its system Cucumber fusarium wilt. The data set can be described thus: In vitro fungicidal activity, PDA colony diameter. The format is cell-based. The following applies: 96 h, 50 mg/kg, inhibition of colony diameter, read-out: Fungicidal activity (%) Cucumber fusarium wilt.
Data set [2] concerns Wheat sheath blight. The data set can be described thus: In vitro fungicidal activity, PDA colony diameter. It is filed as cell-based. As to conditions: 50 mg/kg, inhibition of colony diameter; read-out: Fungicidal activity (%) Wheat sheath blight.
Data set [3] has as its system Capsicum phytophthora blight. The data set can be described thus: In vitro fungicidal activity, PDA colony diameter. The format is cell-based. The following applies: 96 h. As to the method:
(§1) Here, the test is described in an example of Alternaria solani; it can be replaced by other fungi.
(§2) In vitro testing method: Alternaria solani is inoculated to a PDA culture medium and cultured for 7 days, a fungus dish with a diameter of […] is prepared on the periphery of the colony with a punch and inoculated to a PDA culture medium that contains pesticide at a concentration of 50 mg/kg and a PDA culture medium that doesn't contain the pesticide, and are cultured for 4 days respectively; then, the colony diameters are measured, and the inhibition percentages of the pesticides are calculated by comparing with the control sample.

In data set [4] the test system is Apple ring rot. The data set can be described thus: In vitro fungicidal activity, PDA colony diameter. The format is cell-based. The following applies: inhibition of colony diameter. As to the method:
as §1, §2

The test system of data set [5] is Cercospora brown spot of peanut. The data set can be described thus: In vitro fungicidal activity, PDA colony diameter. The format is cell-based. As to conditions: 96 h, 50 mg/kg, inhibition of colony diameter, read-out: Fungicidal activity (%) Cercospora brown spot of peanut.
For data set [6], the system named is Maize borers. The data set can be described thus: Test of insecticidal activity against maize borers (leaf immersion). As to conditions: read-out: Mortalities (%) Maize borers.
Data set [7] relates to Rice sheath blight. Briefly: In vitro fungicidal activity, PDA colony diameter. It is filed as cell-based. The following applies: 50 mg/kg, inhibition of colony diameter; read-out: Fungicidal activity (%) Rice sheath blight.
Data set [8] has as its system Wheat head blight. The data set can be described thus: whole plant or invertebrate. It is filed as cell-based. The following applies: Triticum aestivum, read-out: Fungicidal activity (%) Wheat head blight.
For data set [9], the system named is Potato late blight. The data set can be described thus: microbe, parasite or virus in culture. The format is cell-based. The following applies: Phytophthora infestans, 96 h, read-out: Fungicidal activity (%) Potato late blight.
Data set [10] concerns Watermelon anthracnose. The data set can be described thus: In vitro fungicidal activity, PDA colony diameter. It is filed as cell-based. The following applies: 50 mg/kg, inhibition of colony diameter; read-out: Fungicidal activity (%) Watermelon anthracnose.
The subject of data set [11] is Tomato early blight. The data set can be described thus: In vitro fungicidal activity, PDA colony diameter. It is filed as cell-based, Alternaria solani. As to conditions: 50 mg/kg, inhibition of colony diameter; read-out: Fungicidal activity (%) Tomato early blight.
Data set [12] relates to bean aphides (Aphis laburni Kaltenbach). Briefly: Test of insecticidal activity against aphides (leaf immersion, checked after 96 h).
Protocol: The insecticidal activity against aphides is tested through the following steps: the tested aphides are bean aphides (Aphis laburni Kaltenbach), a normal colony fed with broad bean leaves in a laboratory. The pesticide is weighed, 1 mL DMF is added to dissolve the pesticide, then two drops of emulsifier, Tween-20 are added, and distilled water is added in an appropriate amount; the mixture is stirred to a homogeneous state to prepare pesticide solution at required concentration (see the following table for the specific concentration). […] In a control group, only emulsifier and solvent are added into distilled water, and the mixture is stirred to a homogeneous state.
Data set [13] relates to Corn southern leaf blight. Briefly: In vitro fungicidal activity, PDA colony diameter. It is filed as cell-based. The following applies: 50 mg/kg, inhibition of colony diameter; read-out: Fungicidal activity (%) Corn southern leaf blight.
The subject of data set [14] is Sclerotinia rot of colza. The data set can be described thus: In vitro fungicidal activity, PDA colony diameter. It is filed as cell-based. The following applies: 96 h, 50 mg/kg, inhibition of colony diameter, read-out: Fungicidal activity (%) Sclerotinia rot of colza.
In data set [15] the test system is mosquito larvae (Culer pipiens pallens). The data set can be described thus: Test of insecticidal activity against mosquito larvae (checked after 24 h).
The test system of data set [16] is Armyworms. The data set can be described thus: Test of insecticidal activity against armyworms (leaf immersion). The following applies: 600 mg/kg, 3-4 days.
Data set [17] concerns Cotton bollworms. The data set can be described thus: Test of insecticidal activity against cotton bollworms (pesticide mixed into feedstuff). The following applies: read-out: Mortalities (%) Cotton bollworms.
Protocol: Method of testing against cotton bollworms: the pesticide is mixed into the feedstuff, i.e., 3 mL prepared solution is added into about 27 g freshly prepared feedstuff; thus, required concentration is obtained by diluting by 10 times.
Data set [18] relates to Rice bakanae disease. Briefly: In vitro fungicidal activity, PDA colony diameter. It is filed as cell-based. The following applies: 50 mg/kg, inhibition of colony diameter; read-out: Fungicidal activity (%) Rice bakanae disease.
Where [19] appears, read: Aphis, 96 h, read-out: Mortalities (%) against aphides.
The mark [20] stands for this setting: 24 h, read-out: Mortalities (%) against mosquito larvae.

In the case of `CC1=NNC(=O)N(NS(=O)(=O)c2ccc(C(F)(F)F)cc2)C1` [Ia-26, N-(6-methyl-3-oxo-2,3-dihydro-1,2,4-triazin-4(5H)-yl)-4-(trifluoromethyl)-benzenesulfonamide], the inhibition of growth at 50 mg/kg in [1] is 2.9%; in [3], 27.8%; in [5], 12%; in data set [9] it was 34.3%; in data set [14], 15.8%. For the same molecule, the inhibition at 50 mg/kg in data set [2] stood at 0%; in data set [4], 23%; in [7] it was 20.9%; in data set [8], 13.5%; in [10], 34.4%; in [11], 13.4%. The inhibition at 50 mg/kg in [13] was 6.3%; in data set [18], 17.2%. Also, the mortality at 600 mg/kg came to 40% in data set [6], 100% in [12] (setting [19]) and 0% in data set [17]. Besides, the “insecticidal activity against aphides compared with pymetrozine” value in data set [12] (5 mg/kg) is reported as “equivalent to the insecticidal activity of pymetrozine”. Also, the mortality at 5 mg/kg in data set [12] (setting [19]) came out at 30%; in data set [15] (setting [20]), 100%. Besides, the mortality at 10 mg/kg in data set [12] (setting [19]) and in data set [15] (setting [20]) was 100% each time. The mortality at 100 mg/kg in data set [12] (setting [19]) is 100%. Besides, the mortality at 1 mg/kg in [15] (setting [20]) came to 20%. For the same molecule, the mortality at 2 mg/kg in data set [15] (setting [20]) is 100%. Also, the “insecticidal activity against mosquito larvae” value in data set [15] (in vivo) is “relatively high insecticidal activity”. Further, the “Mortalities (%) Armyworms” value in data set [16] came out at 45%.
In the case of `CCCCS(=O)(=O)N(N1CC(C)=NNC1=O)S(=O)(=O)CCCC` [Ib-4, N-(n-butylsulfonyl)-N-(6-methyl-3-oxo-2,3-dihydro-1,2,4-triazin-4(5H)-yl)-butyl-1-sulfonamide], the inhibition of growth at 50 mg/kg was found to be 20% in [1]; 34.7% in data set [3]; 15.8% in [5]; 33.3% in [9]; 43.3% in data set [14]. The inhibition at 50 mg/kg in data set [2] amounted to 65.5%; in data set [4], 27.6%; in data set [7], 27%; in [8], 3.3%; in data set [10], 29.2%; in data set [11], 19%. For the same molecule, the inhibition at 50 mg/kg in [13] is 20.8%; in [18], 50%. Also, the mortality at 600 mg/kg in data set [6] came out at 10%; in data set [12] (setting [19]), 90%; in data set [17], 45%. In [15] (setting [20]), the mortality at 10 mg/kg was 75%. In addition, in data set [16], the “Mortalities (%) Armyworms” value came to 15%.
Consider `CCCS(=O)(=O)N(N1CC(C)=NNC1=O)S(=O)(=O)CCC` [Ib-3, N-(6-methyl-3-oxo-2,3-dihydro-1,2,4-triazin-4(5H)-yl)-N-(n-propylsulfonyl)propyl-1-sulfonamide], for which the inhibition of growth at 50 mg/kg in data set [1] amounted to 0%; in [3], 26.5%; in [5] it was 15.8%; in data set [9], 22.2%; in data set [14] it was 40%. Also, the inhibition at 50 mg/kg in [2] was determined as 52.3%; in data set [4], 17.2%; in [7], 38.1%; in [8] it was 10%; in [10] it was 25%; in [11], 0%. For the same molecule, the inhibition at 50 mg/kg in data set [13] was 20.8%; in [18], 38.9%. In addition, the figures for the mortality at 600 mg/kg in data set [6], in [12] (setting [19]) and in [17] were 10%, 75% and 5%, respectively. Also, in [15] (setting [20]), the mortality at 10 mg/kg turned out to be 25%. In addition, the “Mortalities (%) Armyworms” value in data set [16] is recorded as 10%.
